Where a name gives a salt, the structure may show the parent alone.
Tests used:
[1] = biological target: T1, FAAH (Mus musculus, UniProt O08914); assay: In vivo FAAH inhibition after oral dosing, remaining activity in brain homogenate (BRh, central nervous tissue); design: species or system NMRI mice; conditions: brain homogenate, 3 mg/kg, 8 h after dosing; low value = strong inhibitor
T1 construct: A fragment of liver, left lung lobe and brain without cerebellum were removed; from tissue; host or cells: male NMRI mice; brain (without cerebellum) and liver homogenates
T1 sequence (O08914 1-579): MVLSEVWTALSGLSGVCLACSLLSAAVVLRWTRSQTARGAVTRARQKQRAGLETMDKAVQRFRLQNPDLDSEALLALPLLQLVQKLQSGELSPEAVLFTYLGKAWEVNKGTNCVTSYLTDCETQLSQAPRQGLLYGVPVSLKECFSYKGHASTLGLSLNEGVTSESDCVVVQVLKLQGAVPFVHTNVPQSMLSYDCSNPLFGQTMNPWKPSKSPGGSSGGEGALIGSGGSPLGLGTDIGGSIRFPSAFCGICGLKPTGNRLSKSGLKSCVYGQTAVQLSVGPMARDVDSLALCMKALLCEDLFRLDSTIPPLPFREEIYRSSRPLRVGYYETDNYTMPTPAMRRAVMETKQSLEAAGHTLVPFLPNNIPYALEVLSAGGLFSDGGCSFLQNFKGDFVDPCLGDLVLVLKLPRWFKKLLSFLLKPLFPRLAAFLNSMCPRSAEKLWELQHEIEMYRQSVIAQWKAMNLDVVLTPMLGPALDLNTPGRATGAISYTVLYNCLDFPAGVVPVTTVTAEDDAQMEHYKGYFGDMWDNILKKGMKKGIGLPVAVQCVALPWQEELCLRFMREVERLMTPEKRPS
Protocol: (§1) The in vivo test was performed according to the protocol described below. BRh indicates inhibition in central nervous tissue and LVh indicates inhibition in peripheral tissue, in this case liver.
(§2) The animals used for experiments were male NMRI mice (weighing 27-44 g) obtained from Interfauna Ibérica (Spain). Mice were kept 5 per cage, under controlled environmental conditions (12 hr light/dark cycle and room temperature 22±1° C.). Food and tap water were allowed ad libitum and the experiments were all carried out during daylight hours.
(§3) Animals were administered 30 mg/kg or 3 mg/kg compounds of the invention via oral route (8 ml/kg; compound suspended in 0.5% carboxymethylcellulose (CMC) or solubilized in water) or vehicle (controls) using animal feeding stainless steel curve needles (Perfectum, U.S.A.). Fifteen minutes before sacrifice animal were anesthetized with pentobarbital 60 mg/kg administered intraperitoneally. A fragment of liver, left lung lobe and brain without cerebellum were removed and put in plastic vials containing membrane buffer (3 mM MgCl2, 1 mM EDTA, 50 mM Tris HCl pH 7.4). Tissues were stored at −30° C. until analysis.
(§4) Animals were always fasted overnight before administration of compounds except for time points of >18 h, where food was removed on the morning of day of administration and the compound was administered in the afternoon of the same day. Animals were then given water but nothing else.
(§5) Tissues were thawed on ice and were homogenized in 10 volumes of membrane buffer (3 mM MgCl2, 1 mM EDTA, 50 mM Tris HCl pH 7.4) with either Potter-Elvejhem (brains—8 strokes at 500 rpm) or Heidolph Diax (livers—2 strokes at position 5 for 20 sec with 30 sec pauses).
(§6) Total protein in tissues was determined with the BioRad Protein Assay (BioRad) using a standard curve of BSA (50-250 μg/ml).
(§7) Reaction mix (total volume of 200 μl) contained: […] (2 μM AEA+5 nM ^3H-AEA), 0.1% fatty acid free BSA, 15 μg (brain), 5 μg (liver) or 50 μg (lung) protein, in 1 mM EDTA, 10 mM Tris pH 7.6. After a […] pre-incubation period at 37° C., reaction was started by the addition of the substrate solution (cold AEA+radiolabelled AEA+BSA). Reaction was carried out for 10 min (brain and lung) or […] (liver) before termination by the addition of 400 μl activated charcoal suspension (8 g charcoal in 32 ml 0.5 M HCl in continuous agitation). After a […] incubation period at room temperature with agitation, charcoal was sedimented by centrifugation in microfuge (10 min at 13000 rpm). 200 μl of the supernatant were added to 800 μl Optiphase Supermix scintillation cocktail previously distributed in 24-well plates. Counts per minute (cpm) were determined in a MicrobetaTriLux scintillation counter.
(§8) In each assay blanks (without protein) were prepared.
(§9) The percentage of remaining enzymatic activity was calculated in respect to controls and after blank subtraction.

[2] = biological target: T1, FAAH; assay: In vivo FAAH inhibition after oral dosing, remaining activity in liver homogenate (LVh, peripheral tissue); design: species or system NMRI mice; conditions: liver homogenate, 3 mg/kg, 8 h after dosing; low value = strong inhibitor
Protocol: as §1, §2, §3, §4, §5, §6, §7, §8, §9

In Vivo BRh 3 mg·kg 8 h (remaining FAAH activity, % of control) [1]	In Vivo LVh 3 mg·kg 8 h (remaining FAAH activity, % of control) [2]	Compound
96.9 % of control	115.8 % of control	CN(C(=O)n1cnc(-c2ccc3c(c2)[nH]c(=O)n3Cc2ccccc2)c1)C1CCCCC1 [Compound no. 426, 4-(1-benzyl-2-oxo-2,3-dihydro-1H-benzo[d]imidazol-5-yl)-N-cyclohexyl-N-methyl-1H-imidazole-1-carboxamide]
96.1 % of control	65.5 % of control	CN(C(=O)n1cnc(-c2ccc(S(=O)(=O)N3CCC(O)CC3)cc2)c1)C1CCCCC1 [Compound no. 432, N-cyclohexyl-4-(4-(4-hydroxypiperidin-1-ylsulfonyl)phenyl)-N-methyl-1H-imidazole-1-carboxamide]
4.3 % of control	4.9 % of control	CN(C)c1ccc(-c2cn(C(=O)N(C)C3CCCCC3)cn2)cc1[N+](=O)[O-] [Compound no. 435, N-cyclohexyl-4-(4-(dimethylamino)-3-nitrophenyl)-N-methyl-1H-imidazole-1-carboxamide]
94.4 % of control	58.6 % of control	CN(C(=O)n1cnc(-c2ccc(O)c(-c3nn[nH]n3)c2)c1)C1CCCCC1 [Compound no. 439, N-cyclohexyl-4-(4-hydroxy-3-(2H-tetrazol-5-yl)phenyl)-N-methyl-1H-imidazole-1-carboxamide]
23.2 % of control	3.3 % of control	CC1(C)COCN1C(=O)n1nnc2cc(C(=O)NO)ccc21 [Compound no. 440, 1-(4,4-dimethyloxazolidine-3-carbonyl)-N-hydroxy-1H-benzo[d][1,2,3]triazole-5-carboxamide]
11.8 % of control	6.5 % of control	CN(C)c1ccc(-c2cn(C(=O)N(C)C3CCCCC3)cn2)cc1N [Compound no. 447, 4-(3-amino-4-(dimethylamino)phenyl)-N-cyclohexyl-N-methyl-1H-imidazole-1-carboxamide]
114.2 % of control	65.4 % of control	COc1ccc(-c2cn(C(=O)N(C)C3CCNCC3)cn2)cc1N [Compound no. 450, 4-(3-amino-4-methoxyphenyl)-N-methyl-N-(piperidin-4-yl)-1H-imidazole-1-carboxamide]
1.1 % of control	0.3 % of control	CN(C(=O)n1cnc(-c2ccc(O)cc2)c1)C1CCN(Cc2ccccc2)CC1 [Compound no. 451, N-(1-benzylpiperidin-4-yl)-4-(4-hydroxyphenyl)-N-methyl-1H-imidazole-1-carboxamide hydrobromide]
3.1 % of control	3 % of control	Br.CN(C(=O)n1cnc(-c2ccc(O)c(F)c2)c1)C1CCN(Cc2ccccc2)CC1 [Compound no. 454, N-(1-benzylpiperidin-4-yl)-4-(3-fluoro-4-hydroxyphenyl)-N-methyl-1H-imidazole-1-carboxamide hydrobromide]
28.1 % of control	10.6 % of control	Br.CN(C(=O)n1cnc(-c2ccc(O)c([N+](=O)[O-])c2)c1)C1CCN(Cc2ccccc2)CC1 [Compound no. 457, N-(1-benzylpiperidin-4-yl)-4-(4-hydroxy-3-nitrophenyl)-N-methyl-1H-imidazole-1-carboxamide hydrobromide]
1.3 % of control	1.9 % of control	CN(C(=O)n1cnc(-c2ccc[n+]([O-])c2)c1)C1CCN(Cc2ccccc2)CC1 [Compound no. 459, 3-(1-((1-benzylpiperidin-4-yl)(methyl)carbamoyl)-1H-imidazol-4-yl)pyridine 1-oxide]
3.8 % of control	3.1 % of control	Br.CN(C(=O)n1cnc(-c2ccc(O)c(O)c2)c1)C1CCN(Cc2ccccc2)CC1 [Compound no. 465, N-(1-benzylpiperidin-4-yl)-4-(3,4-dihydroxyphenyl)-N-methyl-1H-imidazole-1-carboxamide hydrobromide]
4.7 % of control	4.3 % of control	COc1ccc(-c2cn(C(=O)N(C)C3CCOCC3)cn2)cc1N [Compound no. 468, 4-(3-amino-4-methoxyphenyl)-N-methyl-N-(tetrahydro-2H-pyran-4-yl)-1H-imidazole-1-carboxamide]
1.4 % of control	0.7 % of control	CN(C(=O)n1cnc(-c2ccc(O)cc2)c1)C1CCN(C(=O)OC(C)(C)C)CC1 [Compound no. 469, tert-butyl 4-(4-(4-hydroxyphenyl)-N-methyl-1H-imidazole-1-carboxamido)piperidine-1-carboxylate]
83.2 % of control	16.7 % of control	COc1ccc(-c2cn(C(=O)N(C)C3CCCCC3)cn2)cc1C(N)=O [Compound no. 482, 4-(3-carbamoyl-4-methoxyphenyl)-N-cyclohexyl-N-methyl-1H-imidazole-1-carboxamide]
92.1 % of control	15.1 % of control	COc1ccc(-c2cn(C(=O)N(C)C3CCCCC3)cn2)cc1NS(C)(=O)=O [Compound no. 485, N-cyclohexyl-4-(4-methoxy-3-(methylsulfonamido)phenyl)-N-methyl-1H-imidazole-1-carboxamide]
3.8 % of control	2 % of control	CN(C(=O)n1cnc(-c2cccnc2)c1)C1CCN(CCc2ccccc2)CC1 [Compound no. 488, N-methyl-N-(1-phenethylpiperidin-4-yl)-4-(pyridin-3-yl)-1H-imidazole-1-carboxamide]
0.9 % of control	0.7 % of control	CN(C(=O)n1nnc2ccccc21)C1CCN(Cc2ccccc2)CC1.Cl [Compound no. 492, N-(1-benzylpiperidin-4-yl)-N-methyl-1H-benzo[d][1,2,3]triazole-1-carboxamide hydrochloride]

Compound	In Vivo BRh 3 mg·kg 8 h (remaining FAAH activity, % of control) [1]	In Vivo LVh 3 mg·kg 8 h (remaining FAAH activity, % of control) [2]
COc1ccc(-c2cn(C(=O)N(C)C3CCCCC3)cn2)cc1-c1nn[nH]n1 [Compound no. 438, N-cyclohexyl-4-(4-methoxy-3-(2H-tetrazol-5-yl)phenyl)-N-methyl-1H-imidazole-1-carboxamide]	92.4 % of control	6.1 % of control
